As usually defined, the melting point is the temperature, or range, at which the solid turns liquid.

Consider five compounds from patent US6541484B2 (dated 2003).

Counter-ions that a name gives are not always drawn.

On to `Cn1ncnc1COc1nc2c(cnn2-c2ccccc2)c2ccccc12`, for which the melting point lay within 149 to 151 °C.

`CCn1ncnc1COc1nc2c(cnn2-c2ccccc2)c2ccccc12` gave a melting point of 147 to 148 °C.

Take `CCn1ncnc1COc1nc2c(cnn2-c2ccccc2)cc1C(C)(C)C` (as salt: hydrochloride): the melting point lay in the range of 150 to 152 °C.

As for `Cn1ncnc1COc1nc2c(cnn2-c2ccccc2)cc1C(C)(C)C`, the melting point lay within 143 to 145 °C.

In turn, `Cn1ncnc1COc1cc(N)c2cnn(-c3ccccc3)c2n1` showed a melting point of 164 to 166 °C.
